Consider two compounds from the NIST ThermoML archive (doi:10.1021/je3003578).

The conditions of data set [1]: 101 kPa, Liquid.
A short description of data set [2]: xn = mol fraction of the nth substance listed. The settings on record: 283.15 K; 101 kPa; Liquid; x2 = 0.

Usually mass density stands for the mass of a sample divided by its volume.

± gives the expanded uncertainty stated by the source.

For the compound `CCOCCCN` [3-ethoxy-1-propanamine], the mass density in data set [1] (283.15 K) is 865.36 ± 0.82 kg/m3; in data set [1] (288.15 K) it was 860.63 ± 0.83 kg/m3; in data set [1] (293.15 K), 855.715 ± 0.84 kg/m3; in data set [1] (298.15 K), 851.018 ± 0.86 kg/m3; in data set [1] (303.15 K), 846.075 ± 0.87 kg/m3.
For `O` [water] + CCOCCCN, the mass density in data set [2] is recorded as 999.699 ± 0.3 kg/m3.
